This data set in a line: Head-to-side-chain cyclisation: Cys S-alkylation with bifunctional aldehyde linker 1-4 (benzyl bromide or bromoacetamide), then intramolecular reductive amination of the N-terminal amine with NaBH3CN (one pot, crude peptides). The note with it: the molecule shown is the open-chain precursor, 100 mM MOPS pH 6.5 / about 20% MeCN, TCEP, 0.5 mM, 4.0 °C, 24.0 h, 2 steps, scale: 1 = smooth/efficient conversion to macrocycle as major UPLC-MS species, <1 = partial, mixture.

Where only a bound is given, the exact number is not on record here.

With `CC(=O)N[C@@H](CCCCN)C(=O)N[C@H](C(=O)N[C@@H](CO)C(=O)N[C@@H](CO)C(=O)NCC(=O)NCC(=O)N[C@@H](CSCc1ccc(C=O)cc1)C(=O)N[C@@H](Cc1c[nH]c2ccccc12)C(=O)N[C@@H](C)C(N)=O)C(C)C` [Ac-Lys-Val-Ser-Ser-Gly-Gly-Cys(CH2-C6H4-4-CHO)-Trp-Ala-NH2], the ring closure, product found (32-membered ring) was below 1.

In the case of `COc1ccc(C=O)cc1NC(=O)CSC[C@H](NC(=O)CNC(=O)CNC(=O)[C@H](CO)NC(=O)[C@H](CO)NC(=O)[C@@H](NC(=O)[C@@H](N)CCCCN)C(C)C)C(=O)N[C@@H](Cc1c[nH]c2ccccc12)C(=O)N[C@@H](C)C(N)=O`, the ring closure, product found (29-membered ring) was 1.

On to `CC(C)[C@H](NC(=O)[C@H](C)N)C(=O)N[C@@H](CO)C(=O)N[C@@H](CO)C(=O)NCC(=O)NCC(=O)N[C@@H](CO)C(=O)NCC(=O)N[C@@H](CSCC(=O)Nc1ccc2cc(C=O)ccc2c1)C(=O)N[C@@H](Cc1c[nH]c2ccccc12)C(=O)N[C@@H](C)C(N)=O`, for which, for the setting “38-membered ring”, the ring closure, product found was found to be 1.

With `CC(C)[C@H](NC(=O)[C@H](C)N)C(=O)N[C@@H](CC(N)=O)C(=O)N[C@@H](CCC(=O)O)C(=O)N[C@@H](CCCCN)C(=O)N[C@@H](Cc1c[nH]cn1)C(=O)N[C@@H](Cc1ccc(O)cc1)C(=O)N[C@@H](CSCC(=O)Nc1ccc(C=O)cc1)C(=O)N[C@@H](Cc1c[nH]c2ccccc12)C(=O)N[C@@H](C)C(N)=O`, the ring closure, product found (33-membered ring) was 1.

With `CC(C)[C@H](NC(=O)[C@H](C)N)C(=O)N[C@@H](CO)C(=O)N[C@@H](CO)C(=O)NCC(=O)NCC(=O)N[C@@H](CSCc1ccc(C=O)cc1)C(=O)N[C@@H](Cc1c[nH]c2ccccc12)C(=O)N[C@@H](C)C(N)=O` [H-Ala-Val-Ser-Ser-Gly-Gly-Cys(CH2-C6H4-4-CHO)-Trp-Ala-NH2], the ring closure, product found (28-membered ring) is 1.

Turning to `CC(=O)N[C@@H](CCCCN)C(=O)N[C@H](C(=O)N[C@@H](CO)C(=O)N[C@@H](CO)C(=O)NCC(=O)NCC(=O)N[C@@H](CSCC(=O)Nc1ccc2cc(C=O)ccc2c1)C(=O)N[C@@H](Cc1c[nH]c2ccccc12)C(=O)N[C@@H](C)C(N)=O)C(C)C`, the ring closure, product found (36-membered ring) is below 1.

As to `CC(C)[C@H](NC(=O)[C@@H](N)CCCCN)C(=O)N[C@@H](CO)C(=O)N[C@@H](CO)C(=O)NCC(=O)NCC(=O)N[C@@H](CSCC(=O)Nc1ccc(C=O)cc1)C(=O)N[C@@H](Cc1c[nH]c2ccccc12)C(=O)N[C@@H](C)C(N)=O`, the ring closure, product found (30-membered ring) stood at 1.

Consider `CC(C)[C@H](NC(=O)[C@H](C)N)C(=O)N[C@@H](CC(N)=O)C(=O)N[C@@H](CCC(=O)O)C(=O)N[C@@H](CCCCN)C(=O)N[C@@H](Cc1c[nH]cn1)C(=O)N[C@@H](Cc1ccc(O)cc1)C(=O)N[C@@H](CSCC(=O)Nc1ccc2cc(C=O)ccc2c1)C(=O)N[C@@H](Cc1c[nH]c2ccccc12)C(=O)N[C@@H](C)C(N)=O`, for which the ring closure, product found (35-membered ring) is 1.

Regarding `COc1ccc(C=O)cc1NC(=O)CSC[C@H](NC(=O)[C@H](Cc1ccc(O)cc1)NC(=O)[C@H](Cc1c[nH]cn1)NC(=O)[C@H](CCCCN)NC(=O)[C@H](CCC(=O)O)NC(=O)[C@H](CC(N)=O)NC(=O)[C@@H](NC(=O)[C@H](C)N)C(C)C)C(=O)N[C@@H](Cc1c[nH]c2ccccc12)C(=O)N[C@@H](C)C(N)=O`, where the note is “32-membered ring”, the ring closure, product found is 1.

As for `CC(=O)N[C@@H](CCCCN)C(=O)N[C@H](C(=O)N[C@@H](CO)C(=O)N[C@@H](CO)C(=O)NCC(=O)NCC(=O)N[C@@H](CSCC(=O)Nc1ccc(C=O)cc1)C(=O)N[C@@H](Cc1c[nH]c2ccccc12)C(=O)N[C@@H](C)C(N)=O)C(C)C`, the ring closure, product found (34-membered ring) is below 1.

For the compound `COc1ccc(C=O)cc1NC(=O)CSC[C@H](NC(=O)CNC(=O)CNC(=O)[C@H](CO)NC(=O)[C@H](CO)NC(=O)[C@@H](NC(=O)[C@H](C)N)C(C)C)C(=O)N[C@@H](Cc1c[nH]c2ccccc12)C(=O)N[C@@H](C)C(N)=O`, the ring closure, product found (29-membered ring) came to 1.

`CC(C)[C@H](NC(=O)[C@H](C)N)C(=O)N[C@@H](CO)C(=O)N[C@@H](CO)C(=O)NCC(=O)NCC(=O)N[C@@H](CSCC(=O)Nc1ccc2cc(C=O)ccc2c1)C(=O)N[C@@H](Cc1c[nH]c2ccccc12)C(=O)N[C@@H](C)C(N)=O`: the ring closure, product found (32-membered ring) amounted to 1.

Turning to `CC(C)[C@H](NC(=O)[C@@H](N)CCCCN)C(=O)N[C@@H](CO)C(=O)N[C@@H](CO)C(=O)NCC(=O)NCC(=O)N[C@@H](CSCc1ccc(C=O)cc1)C(=O)N[C@@H](Cc1c[nH]c2ccccc12)C(=O)N[C@@H](C)C(N)=O` [H-Lys-Val-Ser-Ser-Gly-Gly-Cys(CH2-C6H4-4-CHO)-Trp-Ala-NH2], the ring closure, product found (28-membered ring) worked out at 1.

For `CC(C)[C@H](NC(=O)[C@H](C)N)C(=O)N[C@@H](CO)C(=O)N[C@@H](CO)C(=O)NCC(=O)NCC(=O)N[C@@H](CSCC(=O)Nc1ccc(C=O)cc1)C(=O)N[C@@H](Cc1c[nH]c2ccccc12)C(=O)N[C@@H](C)C(N)=O`, under “30-membered ring”, the ring closure, product found was found to be 1.

Regarding `CC(C)[C@H](NC(=O)[C@H](C)N)C(=O)N[C@@H](CO)C(=O)N[C@@H](CO)C(=O)NCC(=O)NCC(=O)N[C@@H](CO)C(=O)NCC(=O)N[C@@H](CSCc1ccc(C=O)cc1)C(=O)N[C@@H](Cc1c[nH]c2ccccc12)C(=O)N[C@@H](C)C(N)=O`, the ring closure, product found (34-membered ring) was determined as 1.

With `CC(C)[C@H](NC(=O)[C@@H](N)CCCCN)C(=O)N[C@@H](CO)C(=O)N[C@@H](CO)C(=O)NCC(=O)NCC(=O)N[C@@H](CSCC(=O)Nc1ccc2cc(C=O)ccc2c1)C(=O)N[C@@H](Cc1c[nH]c2ccccc12)C(=O)N[C@@H](C)C(N)=O`, the ring closure, product found (32-membered ring) was found to be 1.

`COc1ccc(C=O)cc1NC(=O)CSC[C@H](NC(=O)CNC(=O)[C@H](CO)NC(=O)CNC(=O)CNC(=O)[C@H](CO)NC(=O)[C@H](CO)NC(=O)[C@@H](NC(=O)[C@H](C)N)C(C)C)C(=O)N[C@@H](Cc1c[nH]c2ccccc12)C(=O)N[C@@H](C)C(N)=O`: the ring closure, product found (35-membered ring) amounted to 1.

On to `CC(C)[C@H](NC(=O)[C@H](C)N)C(=O)N[C@@H](CC(N)=O)C(=O)N[C@@H](CCC(=O)O)C(=O)N[C@@H](CCCCN)C(=O)N[C@@H](Cc1c[nH]cn1)C(=O)N[C@@H](Cc1ccc(O)cc1)C(=O)N[C@@H](CSCc1ccc(C=O)cc1)C(=O)N[C@@H](Cc1c[nH]c2ccccc12)C(=O)N[C@@H](C)C(N)=O`, for which the ring closure, product found (31-membered ring) was determined as 1.

In the case of `CC(C)[C@H](NC(=O)[C@H](C)N)C(=O)N[C@@H](CO)C(=O)N[C@@H](CO)C(=O)NCC(=O)NCC(=O)N[C@@H](CO)C(=O)NCC(=O)N[C@@H](CSCC(=O)Nc1ccc(C=O)cc1)C(=O)N[C@@H](Cc1c[nH]c2ccccc12)C(=O)N[C@@H](C)C(N)=O`, the ring closure, product found (36-membered ring) stood at 1.

Regarding `COc1ccc(C=O)cc1NC(=O)CSC[C@H](NC(=O)CNC(=O)CNC(=O)[C@H](CO)NC(=O)[C@H](CO)NC(=O)[C@@H](NC(=O)[C@H](CCCCN)NC(C)=O)C(C)C)C(=O)N[C@@H](Cc1c[nH]c2ccccc12)C(=O)N[C@@H](C)C(N)=O`, the ring closure, product found (33-membered ring) is below 1.

Source of the values: publication PMC8895403, “A Strategy to Select Macrocyclic Peptides Featuring Asymmetric Molecular Scaffolds as Cyclization Units by Phage Display” (Journal of the American Chemical Society, 2022).
